Experimental data: paper PMC5339975, “Cytotoxicity, antimicrobial and antioxidant activity of eight compounds isolated from Entada abyssinica (Fabaceae)” (BMC Research Notes, 2017)
≈ marks a conversion by molar mass, not a printed value. Where two headings read alike, the source gives them in different places. Marks after values point to notes of the source that are not given here.

Tests used:
[1] = DPPH radical-scavenging assay; conditions: mean ± SD of three experiments
Description: The DPPH radical-scavenging activity was assessed by the method previously described.

[2] = ABTS radical assay; conditions: mean ± SD of three experiments
Description: The antioxidant activity by ABTS was assessed according to the method previously described.

[3] = MTT cytotoxicity assay, normal cells; format: cell-based; conditions: monkey
Description: (§1) Cancer cell lines including human monocytic THP-1 and murine macrophage RAW 264.7 cells and the normal mammalian Vero monkey kidney cell line were obtained from the American Type Culture Collection (Rockville, MD, USA). They were maintained in DMEM under standard cell culture conditions at 37 °C and 5% CO2 in a humidified environment.
(§2) The 3-(4,5-dimethylthiazol-2-yl)-2,5-diphenyltetrazolium bromide (MTT) assay was used to determine the cytotoxicity of the compounds as previously described. The selectivity index (SI) values to identify selective anti-cancer cell activity were calculated by dividing the LC50 values of normal Vero cells by the LC50 of cancer cells.

[4] = system: S. aureus; conditions: cited from earlier work
[5] = system: RAW 264.7 cells; assay: MTT cytotoxicity assay, cancer cells; format: cell-based; conditions: Mus musculus, RAW264.7, read-out: RAW 264.7 LC50
Description: as §1, §2

[6] = system: THP-1 cells; assay: MTT cytotoxicity assay, cancer cells; format: cell-based; conditions: Homo sapiens, THP-1, read-out: THP-1 LC50
Description: as §1, §2

[7] = system: Salmonella typhimurium ATCC 14028; assay: Antibacterial MIC, INT microdilution; format: cell-based; conditions: Salmonella enterica, read-out: MIC St
Description: (§3) The six bacterial strains included: Pseudomonas aeruginosa ATCC 27853, Bacillus cereus ATCC 14579, Staphylococcus aureus ATCC 29213, Escherichia coli ATCC 25922, Salmonella typhimurium ATCC 14028 and Enterococcus faecalis ATCC 29212. The antimicrobial activity was evaluated by determining the minimal inhibitory concentration (MIC) by the rapid p-iodonitrotetrazolium violet (INT) microdilution method as previously described.

[8] = system: Staphylococcus aureus ATCC 29213; assay: Antibacterial MIC, INT microdilution; format: cell-based; conditions: ATCC29213, read-out: MIC Sa
Description: as §3

[9] = system: Bacillus cereus ATCC 14579; assay: Antibacterial MIC, INT microdilution; format: cell-based; conditions: ATCC14579, read-out: MIC Bc
Description: as §3

[10] = system: Enterococcus faecalis ATCC 29212; assay: Antibacterial MIC, INT microdilution; format: cell-based; conditions: ATCC29212, read-out: MIC Ef
Description: as §3

[11] = system: Pseudomonas aeruginosa ATCC 27853; assay: Antibacterial MIC, INT microdilution; format: cell-based; conditions: ATCC27853, read-out: MIC Pa
Description: as §3

[12] = system: Escherichia coli ATCC 25922; assay: Antibacterial MIC, INT microdilution; format: cell-based; conditions: ATCC25922, read-out: MIC Ec
Description: as §3

[13] = Ferric reducing antioxidant power (FRAP) assay; conditions: mean ± SD of three experiments
Description: The antioxidant activity by the ferric reducing antioxidant power (FRAP) was assessed according to the method previously described with slight modifications.

[14] = system: Vero monkey kidney cells; assay: MTT cytotoxicity assay, normal cells; format: cell-based; conditions: normal Vero cells, MTT, mean ± SD
Description: as §1, §2

Compound	DPPH (IC50) [1]	ABTS (IC50) [2]	CC50 [3] [µg/mL]	MIC [4] [µg/mL]	CC50 [5] [µg/mL]	CC50 [6] [µg/mL]	MIC ([7]; Salmonella typhimurium) [µg/mL]	MIC [8] [µg/mL]	MIC [9] [µg/mL]	MIC [10] [µg/mL]	MIC [11] [µg/mL]	MIC [12] [µg/mL]	FRAP [13]	CC50 ([3]; normal Vero cells, MTT, mean ± SD, read-out: Vero LC50) [µg/mL]	MIC [7] [µg/mL]	Vero LC50 [14]
O=C1O[C@H]([C@@H](O)CO)C(O)=C1O [Ascorbic acid, reference compound]	3.44 ± 1.9^a,f µg/mL	4.15 ± 1.21^d,e µg/mL														
C[C@H]1[C@H](C)CC[C@]2(C(=O)O)CC[C@]3(C)C(=CC[C@@H]4[C@@]5(C)CC[C@H](O)C(C)(C)[C@@H]5CC[C@]43C)[C@H]12 [Compound 1, ursolic acid]			22.4 ± 2.48 (≈ 49.1 µM)	4 (≈ 8.76 µM)	4.56 ± 0.02 (≈ 9.98 µM)	9.62 ± 0.59 (≈ 21.1 µM)	100 (≈ 219 µM)	12.5 (≈ 27.4 µM)	6.25 (≈ 13.7 µM)	> 100	> 100	> 100				
C[C@@H]1O[C@@H](Oc2c(-c3ccc(O)c(O)c3)oc3cc(O)cc(O)c3c2=O)[C@H](O)[C@H](O)[C@H]1O [Compound 2, quercetin-3-O-α-L-rhamnoside]	0.9 ± 0.06^b µg/mL	3.53 ± 0.39^b µg/mL			16.4 ± 0.2 (≈ 36.7 µM)	> 100		12.5 (≈ 27.9 µM)	12.5 (≈ 27.9 µM)	25 (≈ 55.8 µM)	50 (≈ 112 µM)	50 (≈ 112 µM)	76.01 ± 1.10^b µmol FeSO4/g	44.8 ± 2.83 (≈ 100 µM)	3.12 (≈ 6.96 µM)	
COC(=O)/C=C(/C)CC[C@]1(C)[C@H]2CCC=C(C(=O)O)[C@]2(C)CC[C@@H]1C [Compound 4, (8S)-kolavic acid 15-methyl ester]	– (– 100 µg/mL)	– (– 100 µg/mL)	47.5 ± 0.63 (≈ 136 µM)		52.3 ± 1.3 (≈ 150 µM)	49.8 ± 3.03 (≈ 143 µM)	100 (≈ 287 µM)	25 (≈ 71.7 µM)	25 (≈ 71.7 µM)	> 100	> 100	> 100	1.93 ± 0.14^a µmol FeSO4/g			
C[C@@H]1CC[C@@]2(C)C(C(=O)O)=CCC[C@@H]2[C@@]1(C)CC(=O)O [Compound 5, 13,14,15,16-tetranor-3-clerodene-12,18-dioic acid]	– (– 100 µg/mL)	– (– 100 µg/mL)	41.9 ± 1.85 (≈ 149 µM)		16.1 ± 1 (≈ 57.4 µM)	21.8 ± 1.11 (≈ 77.8 µM)	> 100	> 100	> 100	> 100	> 100	> 100	5.09 ± 0.40^c µmol FeSO4/g			
COC(=O)c1cc(O)c(O)c(O)c1 [Compound 6, methyl gallate]	0.48 ± 0.02^c µg/mL	2.53 ± 0.49^d µg/mL	30.6 ± 3.09 (≈ 166 µM)		36.9 ± 1.27 (≈ 200 µM)	75 ± 1.68 (≈ 407 µM)	25 (≈ 136 µM)	50 (≈ 272 µM)	50 (≈ 272 µM)	> 100	> 100	> 100	103.98 ± 13.70^d µmol FeSO4/g			
COc1c(O)c(O)cc2c1COc1c-2oc2cc(O)cc(O)c2c1=O [Compound 7, entadanin]	1.12 ± 0.10^c,d µg/mL	4.13 ± 0.10^e µg/mL	55.65 ± 0.3 (≈ 162 µM)		19.1 ± 0.25 (≈ 55.5 µM)	84.3 ± 3.3 (≈ 245 µM)	1.56 (≈ 4.53 µM)	12.5 (≈ 36.3 µM)	25 (≈ 72.6 µM)	> 100	25 (≈ 72.6 µM)	12.5 (≈ 36.3 µM)	72.41 ± 2.02^b,e µmol FeSO4/g			
O=C(CCCCCCCCCCCCCCCCCCCCCCCCC(=O)OC[C@@H](O)CO)OC[C@@H](O)CO [Compound 8, bis-[(S)-(2,3-dihydroxypropyl)] hexacosanedioate]	– (– 100 µg/mL)	– (– 100 µg/mL)	80.5 ± 4.83 (≈ 140 µM)		86.5 ± 4.61 (≈ 151 µM)	65 ± 6.88 (≈ 113 µM)	> 100	> 100	> 100	> 100	> 100	> 100	22.98 ± 4.29^f µmol FeSO4/g			
COc1cccc2c1C(=O)c1c(O)c3c(c(O)c1C2=O)C[C@@](O)(C(=O)CO)C[C@@H]3O[C@H]1C[C@H](N)[C@H](O)[C@H](C)O1 [Doxorubicin, reference compound]					0.5 (≈ 0.92 µM)	> 100										9.35 ± 0.66^h µg/mL
CNC(C)C1CCC(N)C(OC2C(N)CC(N)C(OC3OCC(C)(O)C(NC)C3O)C2O)O1 (centres unmarked) [Gentamicin, reference compound]							2 (≈ 4.19 µM)	0.5 (≈ 1.05 µM)	0.5 (≈ 1.05 µM)	0.25 (≈ 0.523 µM)	0.25 (≈ 0.523 µM)	1 (≈ 2.09 µM)				
COc1ccc(C[C@H](N)C(=O)N[C@H]2[C@@H](O)[C@H](n3cnc4c(N(C)C)ncnc43)O[C@@H]2CO)cc1 [Puromycin, reference compound]					1.15 ± 0.17 (≈ 2.44 µM)	0.4 ± 0.02 (≈ 0.848 µM)										5.32 ± 0.90^i µg/mL
Cc1c(C)c2c(c(C)c1O)CCC(C)(C(=O)O)O2 (centres unmarked) [Trolox, reference compound]	8.71 ± 2.03^e µg/mL	10.38 ± 2.4^a,f µg/mL														
